Five compounds from patent US10172951B2, “Dendrimer based nanodevices for therapeutic and imaging purposes” (priority 2009, dated 2019) can be followed below.

Numbered stars: 1 amine (or outer) side, 2 acyl side, 3 side chain; on linkers, the order of the positions; unused ones are H or OH. Square brackets hold non-standard residues; d marks the D form. Peptide text beside a SMILES is read from it. γGlu = O=C(O)[C@H](CCC(=O)[*:2])N[*:1]

Data set [1] is described as follows: In vitro NAC release from 6-Arm and 8-Arm PEG-S-S-NAC conjugates in PBS with GSH. As to conditions: intracellular GSH concentration (2 and 10 mM), within 2 hours. It is filed as physicochemical. The method, then: The in vitro release of NAC from the 6-Arm-PEG-S—S-NAC and 8-Arm-PEG-S—S-NAC conjugates was performed in PBS (pH=7.4) at 37° C. Appropriate amounts of PEG-S—S-NAC conjugate were dissolved in release media (PBS buffered) to form a solution of 1 mg/ml into eppendorf tube and GSH was added to the conjugates to form 10 mM, 2 mM, or 2 μM concentrations and to initiate the release of NAC. All samples were run as triplicates for statistical analysis. As control samples, conjugates were analyzed in PBS buffered media in the absence of reducing agents. The solutions were kept at 37° C. and stirred continuously. At predetermined time intervals, 30 μL of samples were withdrawn and immediately analyzed release of NAC and GS-NAC with RP-HPLC and the concentrations of analytes were determined by using appropriate calibrations prepared under same conditions.

Data set [2] in a line: Inhibition of GSH depletion by PEG-NAC conjugates. In kind it is cell-based. As to conditions: equimolar NAC 0.5 mM.
The subject of the next data set is microglial cells. Put plainly: Toxicity of PEG-NAC conjugates to microglial cells. In kind it is cell-based. As to conditions: 0.008-0.8 mM.
In another data set the test system is BV-2 cells. Put plainly: TNF-α release assay (ELISA), PEG-NAC conjugates. The conditions noted are these: 5 mM. In kind it is cell-based, mouse. On the procedure:
(A) BV-2 cells (passage 22) were co-treated with 100 ng/mL of LPS and the indicated concentration of NAC, 6-Arm-PEG-S—S-NAC conjugate (1) and its correspond 6-Arm-PEG-SH for 72 hours (B) BV-2 cells were co-treated with 100 ng/mL of LPS and the indicated concentration of NAC, 8-Arm-PEG-S—S-NAC conjugate (3) and its correspond PEG for 72 hours. Three samples were in each group. TNF-α in culture medium was measured using mouse TNF-α ELISA Kit.
The procedure for cell culture and drug treatment was the same as described in an earlier example. TNF-α secretion was measured using an ELISA Kit according to the manufacturer's instruction. In brief, 50 μL of supernatant from each sample was added in 96-well ELISA plates. Biotinylated antibody reagent was applied to each well and incubated the plate at room temperature for 2 hours. After washing the plate with PBS-Tween 20, diluted streptavidin-HRP was added, and the plate was incubated at room temperature for 30 min. After washing the plate, premixed TMB substrate solution was added. The plate was developed in the dark for 30 min, and read at 450 nm using a microplate reader. The concentration of TNF-α was calculated using murine rTNF-α as standard.

A further data set is described as follows: Solubility in PBS/H2O. It is filed as physicochemical.
The nature of data set [3]: Dynamic light scattering size. It is filed as physicochemical. As to conditions: PBS pH 7.4, 37° C. On the procedure: Dynamic light scattering (DLS) analyses were performed using a Malvern Instruments Zetasizer Nano ZEN3600 instrument (Westborough, Mass.) with reproducibility being verified by collection and comparison of sequential measurements. G4-PAMAM-O-GABA-NH-FITC and G4-PAMAM-O-GABA-NH-Alexa conjugate samples were prepared using PBS pH=7.4. DLS measurements were performed at a 90° scattering angle at 37° C. Z-average sizes of three sequential measurements were collected and analyzed.

Data set [4] is described as follows: Stability of fluorophore-dendrimer conjugates in PBS (HPLC). It is filed as physicochemical. The conditions noted are these: PBS (pH 7.4), after 72 hours. The source says: The FITC-labeled compound (G4-PAMAM-O-GABA-NH-FITC) was purified by dialysis (membrane cutoff 1000 Da) against DMSO in dark by replacing DMSO, to remove un-reacted compounds. Purity of G4-PAMAM-O-GABA-NH-FITC conjugate was confirmed by HPLC using fluorescent detector (λex=495 nm/λem=521 nm).
G4-PAMAM-O-GABA-NH2 dendrimer was reacted with the Alexa 488 carboxylic acid succinimidyl ester (Scheme-6). The N-succinimidyl activated ester of Alexa 488 couples to the terminal primary amines to yield amide-linked G4-PAMAM-O-GABA-Alexa conjugate. The formation of conjugate was confirmed by HPLC (FIG. 89) using florescent detector (λex=495 nm/λem=521 nm). […] The absence of any other peak in chromatogram after dialysis of product confirms the absence of free alexa. […] The dendrimer alexa conjugate was prepared for enhanced histological visualization of samples as confocal imaging causes quenching and also to match with the intensities of other alexa conjugated secondary antibodies.

The test system of data set [5] is neuroinflammation in newborn rabbit model of cerebral palsy. Put plainly: In vivo efficacy in newborn rabbit model of cerebral palsy (maternal endotoxin). On the procedure: New Zealand White rabbits (CoVance Research Products Inc., Kalamazoo, Mich.) with timed pregnancies confirmed with breeders (having a history of delivering 7-11 kits per litter) underwent laparotomy under general anesthesia (2-3% isoflurane by mask) on gestational day 28 (E28, term pregnancy is 31-32 days). 1 mL of saline for the control group (n=6) or 1 mL of saline containing 20 μg/kg of LPS (Escherichia coli serotype O127: B8 from Sigma-Aldrich, St Louis, Mo.) for the endotoxin group (n=6), was equally divided and injected into the uterine wall using a 27 gauge needle between the fetuses taking care not to enter the amniotic sac. This ensured that all the kits were exposed to the same amount of endotoxin. 0.5% NaHCO3 was infused at end of surgery and additional dose NaHCO3 was given at 2 hour after surgery according blood gas.
The following animal groups were enrolled and used for this example: • Group 1: Pups exposed to 20μ/kg E. Coli LPS in utero treated with saline I.V. (200 ul), Observe for 5 days (N=5-7) • Group 2: Pups exposed to 20μ/kg E. Coli LPS in utero treated with NAC I.V. (200 ul), single dose 10 mg/kg. Observe for 5 days (N=5-7) • Group 3: Pups exposed to 20μ/kg E. Coli LPS in utero treated with NAC I.V. (200 ul), single dose 100 mg/kg. Observe for 5 days (N=5-7) • Group 4: Pups exposed to 20μ/kg E. Coli LPS in utero treated with G4-PAMAM-S—S-NAC I.V (200 ul), single dose 1 mg/kg (based on preliminary data). […]
All live postnatal day 1 (PND1) control and endotoxin kits from four consecutive litters in each group were tested to reduce the risk of selection bias. The rabbit kits were assessed and scored for behavioral testing, as described by Derrick et al. Briefly, the kits were videotaped and scored on a scale of 0 (worst) to 3 (best) by two blinded observers for (1) posture (ability to maintain prone posture), (2) righting reflex (ability to right itself from supine to prone position for 10 attempts), (3) activity and locomotion on a flat surface (assessed by grading the quality, intensity, and duration of spontaneous movement of the head and front and back legs), (4) ability to move in a straight line and in circles, (5) coordination of suck and swallow assessed by feeding the rabbit kits artificially with formula from a syringe with a dropper, and (6) ability to move head during feeding (scored from 0-3 in which 0 is no movement of head and 3 is forceful movement of head and body). The tone on passive flexion and extension was assessed using the scoring based on the Ashworth scale, as described by Derrick et al, in which 0 indicated no increase in tone and 4 indicated the limb was rigid in flexion or extension. […]
secondary to maternal endotoxin administration were treated with a single dose of either PBS, NAC 100mg/kg, D-NAC 1 mg/kg or 10mg/kg, or dendrimer alone on day 1of life (31 days post-conception). […] Animals were video-taped for 10 minutes and were scored by two observers in a blinded manner. Scores were based on the maximum number of steps taken without falls (scored from 0-4) and number of hops without falls (scored from 0-4) in one minute of continuous activity. […]

With “6 Arm-PEG-S—S-NAC Conjugate [6-arm-PEG-S—S-NAC]”, the NAC released in data set [1] is 74%. Moreover, the “inhibition of GSH depletion versus free NAC” value in data set [2] is on record as “more efficient”. The “toxicity to the microglial cells” value with microglial cells was “nontoxic”. Moreover, in the data set with BV-2 cells, the “inhibition of TNF-α production” value is on record as 70%.

Regarding “8 Arm-PEG-S—S-NAC Conjugate [8-arm-PEG-S—S-NAC]”, the NAC released in data set [1] is reported as 74%. Further, the “inhibition of GSH depletion versus free NAC” value in data set [2] was “more efficient”. Further, the “toxicity to the microglial cells” value with microglial cells is reported as “nontoxic”. Moreover, the “inhibition of TNF-α production” value with BV-2 cells is on record as 70%.

`CC(=O)N[C@@H](CCC(=O)N[C@@H](CS)C(=O)NCC(=O)O)C(=O)O` [GS-S-NAC, N-Acetyl-glutathione] (Ac-[γGlu]-Cys-Gly-OH): in the data set “Solubility in PBS/H2O”, the “Solubility in PBS/H2O” value was “Soluble”.

Regarding G4-PAMAM-O-GABA-NH-Alexa-488, in data set [3], the “size (DLS)” value was found to be 5.6 nm. The “stability of the conjugate” value in data set [4] was “alexa was not released from the conjugate”.

For the compound “PAMAM-O-GABA-NH—CO-Ethyl-S—S-NAC [Dendrimer-NAC]”, the “suppression of NF-κB” value in data set [5] (1 mg/kg single dose on PND-1, hippocampus PND 5) is “as effective as 100 mg/kg of NAC alone”. The “suppression of IL-6 relative to free drug” value in data set [5] (hippocampus) is 10-100 times. Also, the “suppression of TNF-alpha mRNA expression relative to free drug” value in data set [5] (hippocampus, 5 days of age) was 10-100 times. Also, the “effect on myelination compared to the drug alone” value in data set [5] (rabbit, in vivo) is listed as “increased myelination”. In data set [5] (single i.v. administration), the “efficacy relative to free NAC” value was at most 100 times.
